{"source": "paper PMC10755728", "about": "“Inhibitors of the Elastase LasB for the Treatment of Pseudomonas aeruginosa Lung Infections” (ACS Central Science, 2023)", "key": {"[1]": {"experiment": "Metabolic stability in mouse liver S9 fraction", "assay_type": "in vitro ADME"}, "MMP-1": {"target": "T1, MMP-1 (Homo sapiens, UniProt P03956)", "T1 construct": "purchased AnaSpec (Fremont, CA, USA)", "T1 sequence (P03956 100-469)": "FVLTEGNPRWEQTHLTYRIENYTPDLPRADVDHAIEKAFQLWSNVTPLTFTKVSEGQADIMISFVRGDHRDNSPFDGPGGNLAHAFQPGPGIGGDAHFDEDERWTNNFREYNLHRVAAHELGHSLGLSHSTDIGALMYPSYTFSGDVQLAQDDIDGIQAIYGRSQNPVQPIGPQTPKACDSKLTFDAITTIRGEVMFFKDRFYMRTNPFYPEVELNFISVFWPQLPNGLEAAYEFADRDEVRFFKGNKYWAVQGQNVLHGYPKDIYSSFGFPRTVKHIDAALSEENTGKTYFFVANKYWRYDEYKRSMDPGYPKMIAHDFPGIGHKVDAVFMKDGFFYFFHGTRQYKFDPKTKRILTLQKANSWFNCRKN", "experiment": "MMP-1 inhibition assay", "assay_type": "biochemical", "settings": "read-out: % inhibition MMP-1"}, "zebrafish embryos": {"tested_on": "zebrafish embryos", "experiment": "Zebrafish embryo toxicity"}}, "data": [{"smiles": "CC(C)CC(C(=O)Nc1ccc(C(F)(F)F)cc1)P(=O)(O)O", "note": "(centres unmarked) [Compound 4b]", "values": [{"measurement": "microsomal CLint at 1 μM", "setting": "[1]", "result": "< 5.8", "unit": "µL/min/mg"}, {"measurement": "inhibition at 100 µM", "setting": "MMP-1", "result": "21 ± 1", "unit": "%"}, {"measurement": "Survival rate", "setting": "zebrafish embryos; 12.5 µM", "result": 100, "unit": "%"}, {"measurement": "Survival rate", "setting": "zebrafish embryos; 25 µM", "result": 100, "unit": "%"}, {"measurement": "Screening observations", "setting": "zebrafish embryos; 25 µM, 5 dpf", "result": 1, "unit": "nsb"}, {"measurement": "Survival rate", "setting": "zebrafish embryos; 50 µM", "result": 100, "unit": "%"}, {"measurement": "Screening observations", "setting": "zebrafish embryos; 50 µM, 5 dpf", "result": 2, "unit": "nsb"}, {"measurement": "Survival rate", "setting": "zebrafish embryos; 100 μM", "result": 100, "unit": "%"}, {"measurement": "Screening observations", "setting": "zebrafish embryos; 100 µM, 3 dpf", "result": 1, "unit": "edema"}, {"measurement": "Screening observations", "setting": "zebrafish embryos; 100 µM, 4 dpf", "result": 1, "unit": "edema"}, {"measurement": "Screening observations", "setting": "zebrafish embryos; 100 µM, 5 dpf", "result": "1 nsb, 1 edema"}]}]}
